This note sets out measurements from the OligoGym collection.

Oligonucleotides are given in HELM: sugar(base)linkage, 5' to 3'; d 2'-deoxyribose, r ribose, m 2'-O-methylribose, p phosphate. ss, as = sense and antisense strand

This series deals with UBE2D3. The experiment in a line: reporter assay of Huesken 2005. The settings on record: siRNA.
Note: test concentration or dose not given here.

Take “RNA1{r(C)p.r(A)p.r(A)p.r(G)p.r(A)p.r(A)p.r(U)p.r(U)p.r(U)p.r(A)p.r(U)p.r(C)p.r(A)p.r(U)p.r(C)p.r(C)p.r(A)p.r(A)p.r(A)p.d(T)p.d(T)}|RNA2{r(U)p.r(U)p.r(U)p.r(G)p.r(G)p.r(A)p.r(U)p.r(G)p.r(A)p.r(U)p.r(A)p.r(A)p.r(A)p.r(U)p.r(U)p.r(C)p.r(U)p.r(U)p.r(G)p.d(T)p.d(T)}$$$RNA1{StrandType:ss}|RNA2{StrandType:as}$”: the normalised inhibition (eCFP-eYFP dual reporter) is 93.1%. Take “RNA1{r(G)p.r(G)p.r(U)p.r(C)p.r(G)p.r(C)p.r(C)p.r(U)p.r(G)p.r(C)p.r(U)p.r(U)p.r(U)p.r(A)p.r(A)p.r(C)p.r(A)p.r(A)p.r(U)p.d(T)p.d(T)}|RNA2{r(A)p.r(U)p.r(U)p.r(G)p.r(U)p.r(U)p.r(A)p.r(A)p.r(A)p.r(G)p.r(C)p.r(A)p.r(G)p.r(G)p.r(C)p.r(G)p.r(A)p.r(C)p.r(C)p.d(A)p.d(C)}$$$RNA1{StrandType:ss}|RNA2{StrandType:as}$”: the normalised inhibition (eCFP-eYFP dual reporter) came to 84.5%. As for “RNA1{r(U)p.r(U)p.r(A)p.r(U)p.r(C)p.r(C)p.r(A)p.r(U)p.r(U)p.r(U)p.r(G)p.r(U)p.r(U)p.r(C)p.r(A)p.r(C)p.r(U)p.r(G)p.r(C)p.d(T)p.d(T)}|RNA2{r(G)p.r(C)p.r(A)p.r(G)p.r(U)p.r(G)p.r(A)p.r(A)p.r(C)p.r(A)p.r(A)p.r(A)p.r(U)p.r(G)p.r(G)p.r(A)p.r(U)p.r(A)p.r(A)p.d(A)p.d(A)}$$$RNA1{StrandType:ss}|RNA2{StrandType:as}$”, the figure is 23.6%. The value for “RNA1{r(A)p.r(G)p.r(C)p.r(A)p.r(U)p.r(U)p.r(U)p.r(G)p.r(U)p.r(C)p.r(U)p.r(C)p.r(G)p.r(A)p.r(U)p.r(A)p.r(U)p.r(U)p.r(C)p.d(T)p.d(T)}|RNA2{r(G)p.r(A)p.r(A)p.r(U)p.r(A)p.r(U)p.r(C)p.r(G)p.r(A)p.r(G)p.r(A)p.r(C)p.r(A)p.r(A)p.r(A)p.r(U)p.r(G)p.r(C)p.r(U)p.d(G)p.d(C)}$$$RNA1{StrandType:ss}|RNA2{StrandType:as}$” was 79.2%; that for “RNA1{r(C)p.r(A)p.r(A)p.r(U)p.r(U)p.r(U)p.r(C)p.r(U)p.r(A)p.r(A)p.r(A)p.r(G)p.r(U)p.r(U)p.r(C)p.r(U)p.r(U)p.r(U)p.r(U)p.d(T)p.d(T)}|RNA2{r(A)p.r(A)p.r(A)p.r(A)p.r(G)p.r(A)p.r(A)p.r(C)p.r(U)p.r(U)p.r(U)p.r(A)p.r(G)p.r(A)p.r(A)p.r(A)p.r(U)p.r(U)p.r(G)p.d(T)p.d(T)}$$$RNA1{StrandType:ss}|RNA2{StrandType:as}$” was 80.6%. The value for “RNA1{r(A)p.r(A)p.r(G)p.r(G)p.r(U)p.r(U)p.r(G)p.r(C)p.r(A)p.r(U)p.r(U)p.r(U)p.r(A)p.r(C)p.r(A)p.r(A)p.r(C)p.r(A)p.r(A)p.d(T)p.d(T)}|RNA2{r(U)p.r(U)p.r(G)p.r(U)p.r(U)p.r(G)p.r(U)p.r(A)p.r(A)p.r(A)p.r(U)p.r(G)p.r(C)p.r(A)p.r(A)p.r(C)p.r(C)p.r(U)p.r(U)p.d(A)p.d(G)}$$$RNA1{StrandType:ss}|RNA2{StrandType:as}$” was 83%. “RNA1{r(G)p.r(A)p.r(U)p.r(G)p.r(A)p.r(U)p.r(A)p.r(U)p.r(G)p.r(U)p.r(U)p.r(U)p.r(C)p.r(A)p.r(U)p.r(U)p.r(G)p.r(G)p.r(C)p.d(T)p.d(T)}|RNA2{r(G)p.r(C)p.r(C)p.r(A)p.r(A)p.r(U)p.r(G)p.r(A)p.r(A)p.r(A)p.r(C)p.r(A)p.r(U)p.r(A)p.r(U)p.r(C)p.r(A)p.r(U)p.r(C)p.d(C)p.d(C)}$$$RNA1{StrandType:ss}|RNA2{StrandType:as}$”: the normalised inhibition (eCFP-eYFP dual reporter) was 66.1%.

Substance “RNA1{r(C)p.r(A)p.r(G)p.r(C)p.r(A)p.r(U)p.r(U)p.r(U)p.r(G)p.r(U)p.r(C)p.r(U)p.r(C)p.r(G)p.r(A)p.r(U)p.r(A)p.r(U)p.r(U)p.d(T)p.d(T)}|RNA2{r(A)p.r(A)p.r(U)p.r(A)p.r(U)p.r(C)p.r(G)p.r(A)p.r(G)p.r(A)p.r(C)p.r(A)p.r(A)p.r(A)p.r(U)p.r(G)p.r(C)p.r(U)p.r(G)p.d(C)p.d(C)}$$$RNA1{StrandType:ss}|RNA2{StrandType:as}$” showed a normalised inhibition (eCFP-eYFP dual reporter) of 95.2%.
